The values that follow come from patent US20220339227A1, “COMPOSITIONS OF CANNABINOIDS FOR DELIVERY BY INHALATION” (priority 2019, published 2022).

Data set [1] is described as follows: Pharmacokinetic study in rats: dry powder insufflation of TFF-CBD and intravenous CBD solution. The format is in vivo. Conditions: plasma, intravenous solution 10 mg/kg, rat, read-out: Cannabidiol concentration in rat plasma, Intravenous. Here is the method:
A dry powder formulation for inhalation containing 25% (w/w) of Cannabidiol (CBD) was developed using TFF technology, and a pharmacokinetic (PK) study in rats was performed using PennCentury™ DP4 dry powder Insufflator™ with a target delivered dose of 10 mg/kg CBD. […] For comparison and in contrast to the plasma levels of this TFF-CBD inhaled powder, in an inhaled CBD pharmacokinetic study in rats reported by Hložek et al. (2017) using CBD dissolved in a ethanolic solution and vaporized using heat, the inventors calculated based on information in this paper the administered amount of CBD as the delivered dose of 1.798 mg, or 7.98 mg/kg (calculated according Wang et al., 2014; DD=C×RMV×D, where DD is the delivered dose in mg, C is the concentration of drug powder in air in mg/L, RMV is the respiratory minute volume of a rat in L/min (RMV (L/min) for rats is calculated as =0.608×BW (kg)^0.852), and D is the exposure duration in min; based on 20 mg CBD nebulized into 9.5 L dosing chamber; a calculated RMV of 0.17 L/min, an average body weight of 225 g and exposure time of 5 min). […] There is a difference between this TFF-CBD inhaled powder that maintained relatively constant plasma levels over 8 hours compared to the rapid decline in serum levels of inhaled CBD ethanolic solution reported by Hložek et al. (2017). Possible explanations include that the TFF-CBD powder can better avoid lung clearance and that the TFF-CBD powder particles deposited in the lungs continue to dissolve and be absorbed from the lungs to plasma. (Beinborn et al., 2012; Wang et al., 2014; Carvalho et al., 2014). […] For comparison, based on CBD plasma levels of Huntington's disease patients, as reported by Consroe et al. (1991), the orally administered CBD dose of 10 mg/kg/day, which is the recommended maintenance dose of Epidiolex®, for 6 weeks by oral administration resulted a steady state CBD plasma level between 5.9 and 11.2 ng/mL.
To study of plasma level with lower dose of the TFF-CBD powder by dry powder inhalation, another pharmacokinetic study in rats was performed using PennCentury™ DP4 dry powder Insufflator™ with a target delivered dose of 3 mg/kg and 1 mg/kg CBD. […] In other words, TFF-CBD dry powder inhalation was more efficient in delivering CBD than the vaporized CBD liquid. Therefore, delivery of TFF-CBD powder by dry powder inhalation requires a lower dose to reach the similar systemic levels of CBD as compared to vaporized CBD liquid by inhalation, thus showing TFF-CBD will present better efficacy at equivalent doses.

The conditions of data set [2]: Huntington's disease patients, oral 10 mg/kg/day for 6 weeks; cited from earlier work.
For data set [3] the following is noted: rat, 7.98 mg/kg, cited from earlier work; for CBD serum level: vaporized CBD, by four hours.

Where two headings read alike, the source gives them in different places.

`C=C(C)[C@@H]1CCC(C)=C[C@H]1c1c(O)cc(CCCCC)cc1O` [Cannabidiol]: in data set [1] (n=5, 0.083 h), the concentration at 0.083 h is 4280 ± 891 ng/mL. For the same molecule, in data set [1] (n=5, 0.25 h), the concentration at 0.25 h was found to be 1770 ± 297 ng/mL. For the same molecule, the concentration at 0.5 h in data set [1] (n=5, 0.5 h) came out at 1040 ± 217 ng/mL. In data set [1] (n=5, 1 h), the concentration at 1 h was 601 ± 193 ng/mL. Also, the concentration at 2 h in data set [1] (n=5, 2 h) was 272 ± 112 ng/mL. The concentration at 4 h in data set [1] (n=5, 4 h) worked out at 50 ± 23 ng/mL. The concentration at 8 h in data set [1] (n=5, 8 h) is 16.1 ± 11.3 ng/mL. Further, the “effect of the dosing level in Huntington's disease” value in data set [2] is “neither symptomatically effective nor toxic”. In data set [3] (vaporized CBD ethanolic solution, immediately after removal from inhalation dosing chamber), the “CBD serum level, peak” value is on record as “about 220 ng/mL”. The CBD serum level entry is on record as “less than 20 ng/mL” in data set [3] (listed as CBD) and “below 20 ng/mL” in data set [3].
